Like-named read-outs stand apart in the source and are kept apart here.
What was measured:
BChE = BChE (Homo sapiens, UniProt P06276); assay: BChE inhibition (DTNB, butyrylthiocholine iodide)
VEGFR-2 = biological target: T1, VEGFR-2 (Homo sapiens, UniProt P35968); type: cell-based; conditions: western blot, MCF7, compound at its MTT IC50; for VEGFR-2 RQ (relative quantification): control RQ 3.2634
T1 construct: Western blot technique was considered for EGFR and VEGFR-2 properties determination; endogenous in cells; host or cells: MCF7 (breast cancer cell line)
From the text: (§1) The western blot technique was applied utilizing the IC50 observed for each respective agent synthesized during MTT assay[85],[86]. Consideration of multi-targeted inhibitory properties investigation is based in the fact that cancer initiation and proliferation sometimes utilizes many receptors or signaling pathways.
(§2) Western blot technique was considered for EGFR and VEGFR-2 properties determination utilizing the IC50 observed of each respective agent synthesized during MTT assay against MCF7 (breast) cancer cell line. All the studies were conducted according to the manufacturer’s instruction.^10,^11

EGFR = biological target: T2, EGFR (Homo sapiens, UniProt P00533); type: cell-based; conditions: western blot, MCF7, compound at its MTT IC50; for EGFR RQ (relative quantification): control RQ 3.4461
T2 construct: Western blot technique was considered for EGFR and VEGFR-2 properties determination; endogenous in cells; host or cells: MCF7 (breast cancer cell line)
From the text: as §1, §2

[1] = MTT cytotoxicity assay (CC50); type: cell-based; conditions: African green monkey, VERO-E6 cells
Protocol: The cytotoxic activity of the compounds was tested in VERO-E6 cells by using the 3-(4,5-dimethylthiazol-2-yl)-2,5-diphenyltetrazolium bromide (MTT) method with minor modifications. Briefly, the cells were seeded in 96 well-plates […] at a density of 3 x 10^5 cell/ml and incubated for 24 h at 37 °C in 5% CO2. After 24 h, cells were treated with various concentrated of the tested compounds in triplicates. 24 h later, the supernatant was discarded and cell monolayers were washed with sterile 1x phosphate buffer saline (PBS) 3 times and MTT solution (20 µl of 5 mg/ml) was added to each well and incubated at 37 °C for 4 h followed by medium aspiration. In each well, the formed formazan crystals were dissolved with 200 µl of acidified isopropanol (0.04 M HCl in absolute isopropanol = 0.073 ml HCl in 50 ml isopropanol). Eventually, the absorbance was measured at λmax 570 nm using the Anthos Zenyth 200rt plate reader (Anthos Labtec Instruments, Heerhugowaard, Netherlands). The cytotoxicity of various concentrations compared to the untreated cells was determined using nonlinear regression analysis by plotting log inhibitor versus normalized response.^12^-14

[2] = tested on: A431 (skin squamous) cancer cell line; assay: MTT antiproliferation, A431; type: cell-based, human; conditions: for IC50: Homo sapiens; for SI (selectivity index) A431: IC50 of RPE1/IC50 of cancer cell line
Protocol: (§3) Antiproliferation properties of the targeted agents were investigated by the standard MTT technique against diverse human cancer cell lines [MCF7 (breast), HCT116 (colon), A431 (skin squamous) and PaCa2 (pancreatic)][67] (Table 1, Supplementary Figs. S48‒S51).
(§4) Cells were seeded at concentration of 30000 cells per well in fresh complete growth medium in 96-well tissue culture microtiter plates for 24 h. […] 0.5% DMSO was used as negative control. Triplicate wells were prepared for each individual dose. After 72 h of incubation, medium was aspirated, 40 μl MTT salt (2.5 mg ml^-1) was added to each well and incubated for further 4 h at 37 °C. To stop the reaction and dissolve the formed crystals, 150 μl of 10% sodium dodecyl sulfate (SDS) in deionized water was added to each well and incubated overnight at 37 °C.
(§5) Data were collected as mean values for experiments performed in triplicates for each individual dose which had been measured by MTT assay. […] The cell surviving fraction was calculated according to the following equation.
(§6) Surviving fraction = OpticaldensityO.D.oftreatedcellsO.D.ofcontrolcells
(§7) Statistical calculations for determination of the mean and standard error mean values were determined by SPSS 16 software.

[3] = tested on: RPE1 (normal human immortalized retinal pigment epithelial cell line); assay: MTT toxicity towards normal cells, RPE1; type: cell-based; conditions: RPE-1, read-out: IC50 (µM) ± SEM RPE1
Protocol: The safety of the synthesized agents against non-cancer/normal RPE1 (retinal pigment epithelium) cell line was assessed (Table 1, Supplementary Fig. S52). The SI (selectivity index) for the tested compounds against RPE1 cell line confirms the safety towards non-cancer cells. […] Compound 6d and 6h which are also of high anti-PaCa2 show remarkable SI values (SI = > 3.8, > 3.6, respectively).
The agents synthesized were also tested against RPE1 (normal human immortalized retinal pigment epithelial cell line) cell (in DMEM-F12 medium) to determine the toxicity/selectivity towards normal cells relative to the cancer cell lines utilized.
(§8) Statistical calculations for determination of the mean and standard error mean values were determined by SPSS 16 software. The observed anti-proliferative properties are presented in Table 1 (Supplementary Figs. S48‒S52).

[4] = tested on: PaCa2 (pancreatic) cancer cell line; assay: MTT antiproliferation, PaCa-2; type: cell-based, human; conditions: for IC50: Homo sapiens, read-out: IC50 (µM) ± SEM PaCa-2; for SI (selectivity index) PaCa-2: IC50 of RPE1/IC50 of cancer cell line
Protocol: as §3
Cells were suspended in DMEM medium for MCF7, A431, PaCa-2 and McCoy’s 5A for HCT116 in addition to 1% antibiotic–antimycotic mixture (10000 μg ml^-1 potassium penicillin, 10000 μg ml^-1 streptomycin sulfate and 25 μg ml^-1 amphotericin B), 10% fetal bovine serum and 1% L-glutamine at 37 °C, under 5% CO2 and 95% humidity. Cells were seeded at concentration of 30000 cells per well in fresh complete growth medium in 96-well tissue culture microtiter plates for 24 h. Media was aspirated, fresh complete medium was added and cells were incubated with different concentrations of the tested compound to give a final concentration of [50, 25, 12.5 and 6.25 μM “in addition to 3.125, 1.56 and 0.78 μM in case of high potent analogues”). 0.5% DMSO was used as negative control. Triplicate wells were prepared for each individual dose. After 72 h of incubation, medium was aspirated, 40 μl MTT salt (2.5 mg ml^-1) was added to each well and incubated for further 4 h at 37 °C. To stop the reaction and dissolve the formed crystals, 150 μl of 10% sodium dodecyl sulfate (SDS) in deionized water was added to each well and incubated overnight at 37 °C. The absorbance was then measured at 570 nm and a reference wavelength of 595 nm.
as §5, §6, §8

[5] = tested on: SARS-CoV-2 (hCoV-19/Egypt/NRC-03/2020); assay: Vero-E6 cell viral infection model, anti-SARS-CoV-2 IC50 (CPE, crystal violet); type: cell-based; conditions: for IC50: Severe acute respiratory syndrome coronavirus 2, Vero C1008; for SI = CC50/IC50: Vero-E6, SARS-CoV-2
[6] = tested on: MCF7 (breast) cancer cell line; assay: MTT antiproliferation, MCF7; type: cell-based, human; conditions: for IC50: Homo sapiens, MCF7, 72 h, read-out: IC50 (µM) ± SEM MCF7; for SI (selectivity index) MCF7: IC50 of RPE1/IC50 of cancer cell line
Protocol: as §3, §4, §5, §6, §7

[7] = tested on: HCT116 (colon) cancer cell line; assay: MTT antiproliferation, HCT116; type: cell-based, human; conditions: for IC50: Homo sapiens, HCT-116, 72 h, read-out: IC50 (µM) ± SEM HCT116; for SI (selectivity index) HCT116: IC50 of RPE1/IC50 of cancer cell line
Protocol: as §3, §4, §5, §6, §7

AChE = AChE (Homo sapiens, UniProt P22303); assay: AChE inhibition (DTNB, acetylthiocholine); type: biochemical; conditions: for IC50: read-out: AChE (IC50, μM) ± SD
Protocol: All compounds were dissolved in MeOH.

[8] = A-431, 72 h, read-out: IC50 (µM) ± SEM A431
[9] = A-431, read-out: Observed log(IC50, μM) (A431) (converted)
[10] = Vero-E6, 72 h, reduction of virus-induced CPE, read-out: IC50 (µM) SARS-CoV-2
[11] = log of observed IC50 in μM, read-out: Observed log(IC50, μM) (SARS-CoV-2) (converted)

T1 sequence (P35968 20-1356): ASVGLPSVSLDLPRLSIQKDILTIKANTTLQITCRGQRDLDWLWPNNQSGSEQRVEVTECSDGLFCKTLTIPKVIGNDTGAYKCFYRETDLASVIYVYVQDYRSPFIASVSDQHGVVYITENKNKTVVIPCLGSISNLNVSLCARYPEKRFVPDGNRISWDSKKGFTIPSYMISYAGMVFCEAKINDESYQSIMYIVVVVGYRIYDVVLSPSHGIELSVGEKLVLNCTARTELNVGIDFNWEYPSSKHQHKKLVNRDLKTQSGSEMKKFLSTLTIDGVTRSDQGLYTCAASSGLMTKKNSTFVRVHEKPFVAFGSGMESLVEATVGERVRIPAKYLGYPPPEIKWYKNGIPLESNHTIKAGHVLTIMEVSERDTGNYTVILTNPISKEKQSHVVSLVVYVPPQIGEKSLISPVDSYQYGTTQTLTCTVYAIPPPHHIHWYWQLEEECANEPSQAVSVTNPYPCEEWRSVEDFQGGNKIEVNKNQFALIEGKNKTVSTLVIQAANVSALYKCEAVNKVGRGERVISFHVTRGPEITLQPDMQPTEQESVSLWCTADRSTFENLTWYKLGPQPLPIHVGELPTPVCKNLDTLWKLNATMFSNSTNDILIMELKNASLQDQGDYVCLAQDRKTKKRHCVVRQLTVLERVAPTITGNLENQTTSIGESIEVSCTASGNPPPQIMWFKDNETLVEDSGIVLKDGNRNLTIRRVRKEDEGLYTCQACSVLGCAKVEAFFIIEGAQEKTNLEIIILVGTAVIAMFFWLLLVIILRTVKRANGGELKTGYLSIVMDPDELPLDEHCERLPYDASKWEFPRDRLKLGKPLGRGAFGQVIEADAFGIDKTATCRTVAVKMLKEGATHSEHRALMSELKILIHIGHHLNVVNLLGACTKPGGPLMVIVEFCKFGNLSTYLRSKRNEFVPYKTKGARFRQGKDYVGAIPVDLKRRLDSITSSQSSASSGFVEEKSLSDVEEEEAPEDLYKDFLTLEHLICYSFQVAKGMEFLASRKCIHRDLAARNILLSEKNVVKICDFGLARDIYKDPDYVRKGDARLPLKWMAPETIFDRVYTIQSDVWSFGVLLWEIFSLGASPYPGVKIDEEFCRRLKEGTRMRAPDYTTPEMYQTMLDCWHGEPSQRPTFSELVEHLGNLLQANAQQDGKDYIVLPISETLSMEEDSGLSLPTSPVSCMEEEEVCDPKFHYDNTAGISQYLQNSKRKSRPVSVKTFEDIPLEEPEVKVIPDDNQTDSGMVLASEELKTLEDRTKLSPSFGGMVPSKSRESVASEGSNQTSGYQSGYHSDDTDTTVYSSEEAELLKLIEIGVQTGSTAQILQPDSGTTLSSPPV
T2 sequence (P00533 25-1210): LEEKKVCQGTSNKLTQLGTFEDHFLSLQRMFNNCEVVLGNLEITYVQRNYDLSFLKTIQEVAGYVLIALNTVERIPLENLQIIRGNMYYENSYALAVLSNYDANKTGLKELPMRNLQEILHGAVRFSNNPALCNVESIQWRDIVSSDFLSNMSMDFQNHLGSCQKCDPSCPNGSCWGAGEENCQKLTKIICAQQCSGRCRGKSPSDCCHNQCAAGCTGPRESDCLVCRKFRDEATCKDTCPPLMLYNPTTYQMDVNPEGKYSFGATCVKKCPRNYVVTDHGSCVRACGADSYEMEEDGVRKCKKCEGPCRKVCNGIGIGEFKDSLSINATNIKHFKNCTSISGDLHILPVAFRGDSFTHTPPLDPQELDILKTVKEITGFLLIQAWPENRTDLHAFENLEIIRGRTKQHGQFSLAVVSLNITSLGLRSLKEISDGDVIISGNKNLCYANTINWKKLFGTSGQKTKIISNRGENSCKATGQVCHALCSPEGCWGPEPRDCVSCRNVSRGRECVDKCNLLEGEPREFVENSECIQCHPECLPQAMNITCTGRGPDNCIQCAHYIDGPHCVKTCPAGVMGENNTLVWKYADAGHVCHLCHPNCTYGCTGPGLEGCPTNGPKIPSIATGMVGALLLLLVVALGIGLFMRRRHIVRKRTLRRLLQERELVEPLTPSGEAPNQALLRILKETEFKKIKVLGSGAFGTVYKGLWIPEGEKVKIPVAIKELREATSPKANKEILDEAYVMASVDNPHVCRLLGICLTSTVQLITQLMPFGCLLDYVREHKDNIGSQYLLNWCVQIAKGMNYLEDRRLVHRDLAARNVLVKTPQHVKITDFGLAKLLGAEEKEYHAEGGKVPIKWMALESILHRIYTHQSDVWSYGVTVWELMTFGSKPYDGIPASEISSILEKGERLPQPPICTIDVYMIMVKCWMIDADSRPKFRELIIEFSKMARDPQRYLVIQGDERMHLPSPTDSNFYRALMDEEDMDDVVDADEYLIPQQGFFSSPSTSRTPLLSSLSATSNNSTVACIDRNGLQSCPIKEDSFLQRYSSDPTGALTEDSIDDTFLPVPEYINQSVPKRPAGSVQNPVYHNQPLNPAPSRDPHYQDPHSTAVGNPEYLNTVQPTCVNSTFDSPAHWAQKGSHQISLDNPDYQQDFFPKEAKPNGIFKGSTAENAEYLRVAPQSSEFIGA
BChE, sequence (P06276 29-602, species assumed): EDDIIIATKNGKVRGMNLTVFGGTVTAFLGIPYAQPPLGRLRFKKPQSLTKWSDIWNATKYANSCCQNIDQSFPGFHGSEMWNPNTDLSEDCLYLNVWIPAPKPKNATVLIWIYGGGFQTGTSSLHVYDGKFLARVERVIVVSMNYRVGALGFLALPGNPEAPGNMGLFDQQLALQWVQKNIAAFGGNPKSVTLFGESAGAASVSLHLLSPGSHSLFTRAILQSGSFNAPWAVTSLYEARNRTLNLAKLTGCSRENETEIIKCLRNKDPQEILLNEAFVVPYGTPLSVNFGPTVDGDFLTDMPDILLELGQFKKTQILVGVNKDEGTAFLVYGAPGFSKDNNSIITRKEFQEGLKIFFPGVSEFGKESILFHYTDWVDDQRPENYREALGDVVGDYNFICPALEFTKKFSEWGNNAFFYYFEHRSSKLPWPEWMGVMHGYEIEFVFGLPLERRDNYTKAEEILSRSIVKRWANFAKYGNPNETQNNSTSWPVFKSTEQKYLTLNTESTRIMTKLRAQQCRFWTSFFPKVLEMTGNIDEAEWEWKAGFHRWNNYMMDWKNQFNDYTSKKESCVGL
AChE, sequence (P22303 32-614): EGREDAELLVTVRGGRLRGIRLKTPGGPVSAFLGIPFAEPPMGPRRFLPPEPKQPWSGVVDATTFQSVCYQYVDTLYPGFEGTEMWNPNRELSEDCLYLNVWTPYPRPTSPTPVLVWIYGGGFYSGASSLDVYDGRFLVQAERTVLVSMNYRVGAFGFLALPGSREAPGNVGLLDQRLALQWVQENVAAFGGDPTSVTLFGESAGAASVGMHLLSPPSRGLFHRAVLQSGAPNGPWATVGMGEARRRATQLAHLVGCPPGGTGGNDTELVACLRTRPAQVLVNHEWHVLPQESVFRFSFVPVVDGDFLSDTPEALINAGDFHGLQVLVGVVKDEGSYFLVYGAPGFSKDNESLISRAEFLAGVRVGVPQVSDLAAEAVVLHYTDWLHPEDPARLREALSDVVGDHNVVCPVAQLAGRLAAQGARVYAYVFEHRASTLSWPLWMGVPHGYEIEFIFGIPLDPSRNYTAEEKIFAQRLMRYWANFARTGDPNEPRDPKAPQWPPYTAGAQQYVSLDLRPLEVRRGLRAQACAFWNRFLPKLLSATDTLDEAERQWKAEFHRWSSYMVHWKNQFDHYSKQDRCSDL

| SMILES | IC50 (BChE) [µM] | VEGFR-2 % Inhibition (VEGFR-2) [%] | VEGFR-2 RQ (relative quantification) (VEGFR-2) | EGFR % Inhibition (EGFR) [%] | EGFR RQ (relative quantification) (EGFR) | CC50 at 24 h [1] [µM] | IC50 [2, 8] [µM] | IC50 [2, 9] [µM] | SI (selectivity index) A431 [2] | IC50 [3] [µM] | IC50 ([4]; PaCa-2, 72 h) [µM] | SI (selectivity index) PaCa-2 [4] | IC50 [5, 10] [µM] | IC50 [5, 11] [µM] | SI = CC50/IC50 [5] | IC50 [6] [µM] | IC50 [7] [µM] | SI (selectivity index) HCT116 [7] | SI = IC50 (AChE)/IC50 (BChE) (AChE) | IC50 (AChE) [µM] | also measured |
| --- | --- | --- | --- | --- | --- | --- | --- | --- | --- | --- | --- | --- | --- | --- | --- | --- | --- | --- | --- | --- | --- |
| CN1CC(c2ccccc2)C2(CN(S(C)(=O)=O)C/C(=C\c3ccccc3)C2=O)C12C(=O)Nc1ccccc12 (centres unmarked) [Compound 6a, (E)-5″-Benzylidene-1′-methyl-1″-(methylsulfonyl)-4′-phenyldispiro[indoline-3,2′-pyrrolidine-3′,3″-piperidine]-2,4″-dione] | 19.8 ± 2.18 | 60.9 | 1.2773 | 66.4 | 1.1593 | 5430 | 32.3 ± 1.14 | 32.3 | > 1.5 | > 50 | 48.4 ± 2.23 | > 1.0 | 34.3 | 34.3 | 158.6 | 19.8 ± 0.99 | 16 ± 1.1 | > 3.1 | 1.1 | 22.2 ± 3.35 | SI (selectivity index) MCF7 [6]: > 2.5 |
| CN1CC(c2ccccc2)C2(CN(S(C)(=O)=O)C/C(=C\c3ccccc3)C2=O)C12C(=O)Nc1ccc(Cl)cc12 (centres unmarked) [Compound 6b, (E)-5″-Benzylidene-5-chloro-1′-methyl-1″-(methylsulfonyl)-4′-phenyldispiro[indoline-3,2′-pyrrolidine-3′,3″-piperidine]-2,4″-dione] | 29.2 ± 3.62 | 64.2 | 1.167 | 54.1 | 1.5804 | 1270 | 9.15 ± 0.7 | 9.15 | 2.7 | 24.7 ± 1.26 | 20.6 ± 1.17 | 1.2 | 9.63 | 9.63 | 132.0 | 7.66 ± 0.68 | 6.92 ± 0.52 | 3.6 | 0.9 | 27.7 ± 5.45 | SI (selectivity index) MCF7 [6]: 3.2 |
| CCS(=O)(=O)N1C/C(=C\c2ccccc2)C(=O)C2(C1)C(c1ccccc1)CN(C)C21C(=O)Nc2ccccc21 (centres unmarked) [Compound 6c, (E)-5″-Benzylidene-1″-(ethylsulfonyl)-1′-methyl-4′-phenyldispiro[indoline-3,2′-pyrrolidine-3′,3″-piperidine]-2,4″-dione] | 65.4 ± 2.42 | 63.8 | 1.18 | 69.6 | 1.0493 | 5700 | 33.2 ± 0.91 | 33.2 | > 1.5 | > 50 | > 50 |  | 103 | 103 | 55.5 | > 50 | 6.12 ± 0.44 | > 8.2 | 1.2 | 78 ± 3.26 |  |
| CCS(=O)(=O)N1C/C(=C\c2ccccc2)C(=O)C2(C1)C(c1ccccc1)CN(C)C21C(=O)Nc2ccc(Cl)cc21 (centres unmarked) [Compound 6d, (E)-5″-Benzylidene-5-chloro-1″-(ethylsulfonyl)-1′-methyl-4′-phenyldispiro[indoline-3,2′-pyrrolidine-3′,3″-piperidine]-2,4″-dione] | 34.4 ± 2 | 63.8 | 1.181 | 62.9 | 1.2774 | 17300 | 4.96 ± 0.25 | 4.96 | > 10.1 | > 50 | 13.1 ± 1.1 | > 3.8 | 171 | 171 | 101.1 | 6.92 ± 0.55 | 5.18 ± 0.61 | > 9.7 | 1.2 | 41 ± 7.03 | SI (selectivity index) MCF7 [6]: > 7.2 |
| CN1CC(c2ccc(F)cc2)C2(CN(S(C)(=O)=O)C/C(=C\c3ccc(F)cc3)C2=O)C12C(=O)Nc1ccccc12 (centres unmarked) [Compound 6e, (E)-5″-(4-Fluorobenzylidene)-4′-(4-fluorophenyl)-1′-methyl-1″-(methylsulfonyl)dispiro[indoline-3,2′-pyrrolidine-3′,3″-piperidine]-2,4″-dione] | 22.2 ± 4.54 | 64.5 | 1.158 | 66.7 | 1.147 | 203 | 16.1 ± 0.99 | 16.1 | 3.1 | 49 ± 1.11 | 39.9 ± 1.89 | 1.2 | 27.9 | 27.9 | 7.3 | 15.5 ± 0.76 | 9.89 ± 0.85 | 5.0 | 0.7 | 15.1 ± 5.76 | SI (selectivity index) MCF7 [6]: 3.2 |
| CCN(CC)CCNC(=O)c1c(C)[nH]c(/C=C2\C(=O)Nc3ccc(F)cc32)c1C [Sunitinib, reference compound] |  |  |  |  |  |  |  |  |  |  |  |  |  |  |  |  |  |  |  |  | IC50 ([4]; MTT, 72 h, PaCa-2): 16.9 ± 0.95 µM |
